Measured values from US20170273985A1, “TRICYCLIC DERIVATIVE” (Sunovion Pharmaceuticals Inc., priority 2014, published 2017).

How the values were obtained:
Assay type in all cases: biochemical
PDE1B = PDE1B (Homo sapiens, UniProt Q01064); assay: In vitro HTRF PDE1 inhibition assay (PDE1B)
From the text: (§1) An exemplary procedure for the in vitro Homogenous Time Resolved Fluorescence assay, which can be used to determine the inhibitory action of compounds of the invention toward PDE1 or its isoforms, follows. The HTRF PDE1 assay utilized the HTRF (Homogenous Time Resolved Fluorescence) technology, which is based on the competition between unlabeled cyclic nucleotide and cyclic nucleotide labeled with XL665 for the binding to cyclic nucleotide-specific antibody labeled with cryptate. The HTRF signal is thus inversely proportional to the concentration of cyclic nucleotide being measured. Since phosphodiesterases break down cyclic nucleotides the HTRF signal was used to determine PDE activity. The Cisbio cGMP HTRF assay kit (Cat no: 62GM2PEC) was utilized. Cyclic GMP was diluted to 200 nM in HTRF assay buffer (1 mM CaCl2, 10 mM MgCl2, 10 mM Tris-HCl, 0.1% BSA, pH 7.4). 10 μl of compound or DMSO was diluted in 200 nM cyclic GMP solution and added to wells of a 96 well white plate to give 100 nM cyclic GMP in 1% DMSO final concentration. PDE (1A3, 1B or IC) was diluted to 2× working concentration in HTRF assay buffer with 2 μg/ml calmodulin, and 10 μl was added to initiate the reaction. The plate was then incubated for 45 minutes at 37° C. d2-Labelled cyclic GMP and anti-cGMP cryptate were diluted in 50 mM phosphate buffer, 0.8 M KF, 1% Triton X100, 0.2% BSA, pH 7.0. Following incubation 10 μl d2-cGMP, then 10 μl anti cGMP cryptate were added to each well and the plate was incubated for 45 minutes at room temperature. The plate was then read on Perkin Elmer Victor at 2 different FRET readings ex/emm 340 nm/665 nm and 340 nm/615 nm. Compounds having an IC50 of <1 μM, are denoted as +++. Compounds having an IC50 of 1−10 μM, are denoted as ++. Compounds having an IC50 of 10-100 μM, are denoted as +.

PDE1C = PDE1C (Homo sapiens, UniProt Q14123); assay: In vitro HTRF PDE1 inhibition assay (PDE1C)
From the text: as §1

PDE1A3 = PDE1A3 (Homo sapiens, UniProt P54750); assay: In vitro HTRF PDE1 inhibition assay (PDE1A3)
From the text: as §1

IC50 (PDE1B; Table 25) [µM]	IC50 (PDE1B; Table 22) [µM]	Compound	also measured
< 1		O=c1c2cnc(C3CCOCC3)n2nc2n1CCN2CCC1(C(F)(F)F)CC1 [Example 160]	IC50 (PDE1C; Table 27): < 1 µM; IC50 (PDE1A3; Table 26): < 1 µM
	< 1	CC(C)(C)CCN1CCn2c1nn1c(C3CCOCC3)ncc1c2=O [Example 55]	IC50 (PDE1C; Table 24): < 1 µM; IC50 (PDE1A3; Table 23): < 1 µM
	< 1	CC1CN(CC2CCOCC2)c2nn3c(C(C)C)ncc3c(=O)n2C1 (stereo not shown) [Example 64]	IC50 (PDE1C; Table 24): < 1 µM; IC50 (PDE1A3; Table 23): < 1 µM
	< 1	O=c1c2cnc(C3CCOCC3)n2nc2n1CCN2CCCC(F)(F)F [Example 56]	IC50 (PDE1C; Table 24): 10 to 100 µM; IC50 (PDE1A3; Table 23): 1 to 10 µM
< 1		CCO[C@H]1CC[C@H](CN2CCCn3c2nn2c(C4CCOCC4)ncc2c3=O)CC1 [Example 193]	IC50 (PDE1C; Table 27): < 1 µM; IC50 (PDE1A3; Table 26): < 1 µM
	< 1	CCN1c2nn3c(C4CCOCC4)ncc3c(=O)n2CC1c1ccc(OC)cc1 (racemic) [Example 66]	IC50 (PDE1C; Table 24): 1 to 10 µM; IC50 (PDE1A3; Table 23): < 1 µM
< 1		CC(C)c1ncc2c(=O)n3c(nn12)N(CC1CCOCC1)C[C@@H](C)C3 [Example 232]	IC50 (PDE1C; Table 27): < 1 µM; IC50 (PDE1A3; Table 26): < 1 µM
	< 1	CC(C)c1ncc2c(=O)n3c(nn12)N(CC1CCOCC1)CCC3 [Example 25]	IC50 (PDE1C; Table 24): < 1 µM; IC50 (PDE1A3; Table 23): < 1 µM
	< 1	CC(C)n1ncc2c(=O)n3c(nc21)N(Cc1ccc(C#N)cc1)CCC3 [Example 79]	IC50 (PDE1C; Table 24): < 1 µM; IC50 (PDE1A3; Table 23): < 1 µM
	< 1	CC(C)n1ncc2c(=O)n3c(nc21)N(Cc1ccc(-c2ccccn2)cc1)CC3 [Example 75]	IC50 (PDE1C; Table 24): < 1 µM; IC50 (PDE1A3; Table 23): < 1 µM
	< 1	CC(C)n1ncc2c(=O)n3c(nc21)N(CC1CCOCC1)CCC3 [Example 78]	IC50 (PDE1C; Table 24): 1 to 10 µM; IC50 (PDE1A3; Table 23): < 1 µM
		O=c1c2cnc(C3CCOCC3)n2nc2n1CCCN2CCC1(C(F)(F)F)CC1 [Example 188]	IC50 (PDE1C; Table 27): < 1 µM; IC50 (PDE1A3; Table 26): < 1 µM
	< 1	CC(C)c1ncc2c(=O)n3c(nn12)N(CCc1ccncc1)CCC3 [Example 41]	
	< 1	CC(C)c1ncc2c(=O)n3c(nn12)N(CCOC(F)(F)F)CCC3 [Example 22]	
1 to 10		CC(C)CCN1CCn2c1nn1c(C3CCOCC3)nc(C#N)c1c2=O [Example 235, 1-(3-Methylbutyl)-5-oxo-8-(tetrahydro-2H-pyran-4-yl)-2,3-dihydro-1H,5H-diimidazo[2,1-c 5′,1′-f][1,2,4]triazine-6-carbonitrile]	
	< 1	CC(C)n1ncc2c(=O)n3c(nc21)N(Cc1ccc(C(F)(F)F)cc1)CCC3 [Example 80]	
< 1		O=c1c2cnn(C3CCOCC3)c2nc2n1CCCN2CC1CC1(F)F (stereo not shown) [Example 227]	
	1 to 10	COc1ccc(C2CCn3c(nn4c(C5CCCC5)ncc4c3=O)C2)cc1 (stereo not shown) [Example 136]	
< 1		CC(C)(C)CN1CCCn2c1nn1c(C3CCOCC3)ncc1c2=O [Example 184]	
< 1		O=c1c2cnc(C3CCOCC3)n2nc2n1CCN2CC1CC1(F)F (racemic) [Example 176]	

IC50 (PDE1B; Table 25) [µM]	IC50 (PDE1B; Table 22) [µM]	Compound	also measured
< 1		O=c1c2cnn(C3CCOCC3)c2nc2n1CCN2Cc1ccc(-c2ccccn2)cc1 [Example 207]	
	< 1	CC(C)c1ncc2c(=O)n3c(nn12)N(CCCCO)CC3 [Example 100, 1-(4-Hydroxybutyl)-8-isopropyl-2,3-dihydro-1H,5H-diimidazo[2,1-c:5′,1′-f][1,2,4]triazin-5-one]	
< 1		O=c1c2cnc(C3CCOCC3)n2nc2n1CCN2Cc1ccc(-c2ccccn2)cc1 [Example 161]	
	< 1	CC(C)c1ncc2c(=O)n3c(nn12)N(CCc1cccc(F)c1)CCC3 [Example 44]	
	< 1	CC1CN(CCCc2ccccn2)c2nn3c(C(C)C)ncc3c(=O)n2C1 (stereo not shown) [Example 121]	
< 1		O=c1c2cnc(C3CCC3)n2nc2n1CCN2CCCc1ccccn1 [Example 142]	
	< 1	CC(C)c1ncc2c(=O)n3c(nn12)N(Cc1ccc(C(F)(F)F)cc1)CCC3 [Example 34]	
	< 1	CC(C)CCN1CCCn2c1nn1c(C(C)C)ncc1c2=O [Example 19]	
< 1		CC(C)CCN1CCn2c1nn1c(C3CCOCC3)nc(Cl)c1c2=O [Example 236, 6-Chloro-1-(3-methylbutyl)-8-(tetrahydro-2H-pyran-4-yl)-2,3-dihydro-1H,5H-diimidazo[2,1-c:5′,1′-f][1,2,4]triazin-5-one]	
	< 1	CC(C)c1ncc2c(=O)n3c(nn12)N(CCCc1ccncc1)CC3 [Example 13]	
	< 1	CC(C)c1ncc2c(=O)n3c(nn12)N(Cc1cccc(C#N)c1)CCC3 [Example 37]	
	< 1	CC(C)c1ncc2c(=O)n3c(nn12)N(CCCc1cccnc1)CCC3 [Example 40]	
	1 to 10	O=c1c2cnc(C3CCOCC3)n2nc2n1CC(c1ccc(Cl)cc1)C2 (stereo not shown) [Example 138, 7-(4-Chlorophenyl)-3-(tetrahydro-2H-pyran-4-yl)-7,8-dihydro-6H,10H-imidazo[5,1-f]pyrrolo[2,1-c][1,2,4]triazin-10-one]	
	1 to 10	CC(C)c1ncc2c(=O)n3c(nn12)N(C(=O)CCN1CCOCC1)CCC3 [Example 125, 9-Isopropyl-1-(3-morpholinopropanoyl)-3,4-dihydro-1H-imidazo[1,5-f]pyrimido[2,1-c][1,2,4]triazin-6(2H)-one]	
	10 to 100	CC(C)c1ncc2c(=O)n3c(nn12)N(C(=O)CCC1CCOCC1)CCC3 [Example 124, 9-Isopropyl-1-(3-(tetrahydro-2H-pyran-4-yl)propanoyl)-3,4-dihydro-1H-imidazo[1,5-f]pyrimido[2,1-c][1,2,4]triazin-6(2H)-one]	
	< 1	CC(C)c1ncc2c(=O)n3c(nn12)N(CCN1CCOCC1)CCC3 [Example 26]	
< 1		O=c1c2cnc(C3CCOCC3)n2nc2n1CCCN2CC1CC1(F)F (stereo not shown) [Example 197]	
	1 to 10	CCc1ccc([C@@H]2Cn3c(nn4c(C5CCOCC5)ncc4c3=O)N2CC)cn1 [Example 89]	
	< 1	COc1ccc(C2CCn3c(nn4c(C(C)C)ncc4c3=O)O2)cc1 (stereo not shown) [Example 129]	
	< 1	CN1c2nn3c(C4CCOCC4)ncc3c(=O)n2CC1c1ccc(Cl)cc1 (racemic) [Example 68]	

IC50 (PDE1B; Table 25) [µM]	IC50 (PDE1B; Table 22) [µM]	Compound	also measured
< 1		CC(C)(C)CCN1CCCn2c1nn1c(C3CCOCC3)ncc1c2=O [Example 186]	
< 1		O=c1c2cnc(C3CCC3)n2nc2n1CCN2Cc1ccc(Cl)cn1 [Example 144]	
	< 1	CCc1ccc(C2Cn3c(nn4c(C5CCOCC5)ncc4c3=O)N2CC)cn1 (stereo not shown) [Example 88]	
< 1		CC(C)(C)CCN1CCn2c1nc1c(cnn1C1CCOCC1)c2=O [Example 211]	
	< 1	O=c1c2cnc(C3CCOCC3)n2nc2n1CCCN2CCCCCO [Example 109]	
	1 to 10	COc1cccc(C2CCn3c(nn4c(C5CCCC5)ncc4c3=O)C2)c1 (stereo not shown) [Example 135]	
< 1		O=c1c2cnc(C3CCOCC3)n2nc2n1CCCN2CCCC(F)(F)F [Example 182]	
	< 1	COCCN1CCCn2c1nn1c(C(C)C)ncc1c2=O [Example 23]	
< 1		O=c1c2cnn(C3CCOCC3)c2nc2n1CCCN2Cc1ccc(Cl)cn1 [Example 217]	
	< 1	CC(C)c1ncc2c(=O)n3c(nn12)N(CCC1CC1)CCC3 [Example 20]	
	10 to 100	CCc1ccc([C@@H]2Cn3c(nn4c(C5CCOCC5)ncc4c3=O)N2CC(C)C)cn1 [Example 93]	
< 1		O=c1c2cnn(C3CCOCC3)c2nc2n1CCN2CC1CCC(F)(F)CC1 [Example 210]	
	1 to 10	COc1ccc(CCCN2CCCn3c2nn2c(C(C)C)ncc2c3=O)cc1 [Example 50]	
	< 1	CC(C)c1ncc2c(=O)n3c(nn12)N(Cc1ccc(Cl)cc1)CCC3 [Example 31]	
	< 1	CC(C)c1ncc2c(=O)n3c(nn12)N(Cc1cccnc1)CCC3 [Example 36]	
< 1		CC(C)n1ncc2c(=O)n3c(nc21)N(Cc1ccc(C2CCOCC2)cc1)CCC3 [Example 216]	
	< 1	CC(C)c1ncc2c(=O)n3c(nn12)N(C)[C@@H](c1ccc(Cl)cn1)C3 [Example 84, (R)-2-(5-Chloropyridin-2-yl)-8-isopropyl-1-methyl-2,3-dihydrodiimidazo[2,1-c:1′,5′-f][1,2,4]triazin-5(1H)-one]	
	< 1	CC(C)c1ncc2c(=O)n3c(nn12)N(Cc1ccccc1)CCC3 [Example 2, 1-Benzyl-9-isopropyl-1,2,3,4-tetrahydro-6H-imidazo[5,1-f]pyrimido[2,1-c][1,2,4]triazin-6-one]	
	< 1	CC(C)c1ncc2c(=O)n3c(nn12)N(CC1CCOCC1)C(C)CC3 (stereo not shown) [Example 3, 11-Methyl-10-(oxan-4-ylmethyl)-6-(propan-2-yl)-1,5,7,8,10-pentaazatricyclo[7,4,0,0,3,7]trideca-3,5,8-trien-2-one]	
